# Assay results published in ChEMBL document CHEMBL4229535, “Design, synthesis and evaluation of oxime-functionalized nitrofuranylamides as novel antitubercular agents” (2018).
# Columns and labels:
# Format in all cases: functional
# [1] = Resistance index, ratio of MIC>90 for multidrug-resistant Mycobacterium tuberculosis clinical isolate 16833 to MIC>90 for Mycobacterium tuberculosis H37Rv ATCC 27294
# [2] = Resistance index, ratio of MIC>90 for multidrug-resistant Mycobacterium tuberculosis clinical isolate 16995 to MIC>90 for Mycobacterium tuberculosis H37Rv ATCC 27294
# [3] = test system: Mycobacterium tuberculosis; assay: Antimycobacterial activity against multidrug-resistant Mycobacterium tuberculosis isolate 16833 after 7 days by microplate alamar blue assay; settings: isolate 16833, 168 h
# [4] = test system: Mycobacterium tuberculosis; assay: Antimycobacterial activity against multidrug-resistant Mycobacterium tuberculosis isolate 16995 after 7 days by microplate alamar blue assay; settings: isolate 16995, 168 h
SMILES,Ratio [1],Ratio [2],MIC90 [3] [µg/mL],MIC90 [4] [µg/mL]
CON=C1CCN(C(=O)c2ccc([N+](=O)[O-])o2)CC1,1,1,1.91,1.94
NNC(=O)c1ccncc1 [ISONIAZID],–,–,> 40,> 40
CO[C@H]1/C=C/O[C@@]2(C)Oc3c(C)c(O)c4c(O)c(c(/C=N/N5CCN(C)CC5)c(O)c4c3C2=O)NC(=O)/C(C)=C\C=C\[C@H](C)[C@H](O)[C@@H](C)[C@@H](O)[C@@H](C)[C@H](OC(C)=O)[C@@H]1C [RIFAMPIN],–,–,> 40,> 40
O=C(c1ccc([N+](=O)[O-])o1)N1CC/C(=N\OCc2ccccc2)C1,1,1,0.207,0.38
O=C(c1ccc([N+](=O)[O-])o1)N1CCc2ccccc21,–,–,> 4,> 4
O=C(c1ccc([N+](=O)[O-])o1)N1CCC(=NOCc2ccccc2)CC1,1,1,0.482,0.426
CO/N=C1\CCN(C(=O)c2ccc([N+](=O)[O-])o2)C1,1,1,1.93,1.91
